Paper PMC5218480 (PLoS ONE, 2017)

System: MV-4-11 cells
Assay: Gene expression microarray analysis (Affymetrix PrimeView) and GSEA
Type: cell-based, human
Set-up: RFU PODN (11730768_x_at) / Fold change /veh PODN (11730768_x_at) / RFU LINC00158 (11744669_a_at) / Fold change /veh LINC00158 (11744669_a_at) / RFU DUSP10 (11751237_a_at) / Fold change /veh DUSP10 (11751237_a_at) / RFU ID3 (11757404_x_at) / Fold change /veh ID3 (11757404_x_at) / RFU PLEKHG5 (11737974_s_at) / Fold change /veh PLEKHG5 (11737974_s_at) / RFU LRRC4B (11730491_at) / Fold change /veh LRRC4B (11730491_at) / RFU GIMAP4 (11747438_a_at) / Fold change /veh GIMAP4 (11747438_a_at) / RFU KRT8 (11758183_x_at) / Fold change /veh KRT8 (11758183_x_at) / RFU CNN1 (11734310_a_at) / Fold change /veh CNN1 (11734310_a_at) / RFU VPS37D (11726825_at) / Fold change /veh VPS37D (11726825_at) / RFU C10orf10 (11716522_x_at) / Fold change /veh C10orf10 (11716522_x_at) / RFU KIR2DL2 /// KIR2DL4 /// KIR2DL5A /// KIR2DL5B /// KIR2DS1 /// KIR2DS2 /// KIR2DS3 /// KIR2DS4 /// KIR3DL3 /// KIR3DL3 /// KIR3DS1 (11738374_at) / Fold change /veh KIR2DL2 /// KIR2DL4 /// KIR2DL5A /// KIR2DL5B /// KIR2DS1 /// KIR2DS2 /// KIR2DS3 /// KIR2DS4 /// KIR3DL3 /// KIR3DL3 /// KIR3DS1 (11738374_at) / RFU C1QL1 (11718748_at) / Fold change /veh C1QL1 (11718748_at) / RFU TMPRSS4 (11747572_a_at) / Fold change /veh TMPRSS4 (11747572_a_at) / RFU HAMP (11756126_x_at) / Fold change /veh HAMP (11756126_x_at) / RFU RNFT2 (11725882_a_at) / Fold change /veh RNFT2 (11725882_a_at) / RFU NR4A2 (11747474_a_at) / Fold change /veh NR4A2 (11747474_a_at) / RFU ABCC12 (11746883_a_at) / Fold change /veh ABCC12 (11746883_a_at) / RFU TMEM136 (11760407_x_at) / Fold change /veh TMEM136 (11760407_x_at) / RFU CLDN22 /// WWC2 (11732394_at) / Fold change /veh CLDN22 /// WWC2 (11732394_at) / RFU HLA-DPB1 (11760878_x_at) / Fold change /veh HLA-DPB1 (11760878_x_at) / RFU SPINT1 (11716480_a_at) / Fold change /veh SPINT1 (11716480_a_at) / RFU GAP43 (11754022_s_at) / Fold change /veh GAP43 (11754022_s_at) / RFU A4GNT (11735810_at) / Fold change /veh A4GNT (11735810_at) / RFU PRB3 (11715151_x_at) / Fold change /veh PRB3 (11715151_x_at) / RFU TUBB4B (11761932_at) / Fold change /veh TUBB4B (11761932_at) / RFU CAPN14 (11732068_a_at) / Fold change /veh CAPN14 (11732068_a_at) / RFU TMCC2 (11721928_a_at) / Fold change /veh TMCC2 (11721928_a_at) / RFU IRGQ (11745062_a_at) / Fold change /veh IRGQ (11745062_a_at) / RFU FAM174B (11720279_a_at) / Fold change /veh FAM174B (11720279_a_at) / RFU TMPRSS4 (11748680_a_at) / Fold change /veh TMPRSS4 (11748680_a_at) / RFU FAM212B (11763350_a_at) / Fold change /veh FAM212B (11763350_a_at) / RFU PLEKHG5 (11743358_a_at) / Fold change /veh PLEKHG5 (11743358_a_at) / RFU ZSCAN30 (11745921_a_at) / Fold change /veh ZSCAN30 (11745921_a_at) / RFU CMKLR1 (11741424_a_at) / Fold change /veh CMKLR1 (11741424_a_at) / RFU LOC101060620 /// MAPK8IP1 (11723275_at) / Fold change /veh LOC101060620 /// MAPK8IP1 (11723275_at) / RFU SPTSSB (11747773_x_at) / Fold change /veh SPTSSB (11747773_x_at) / RFU PRSS12 (11739890_at) / Fold change /veh PRSS12 (11739890_at) / RFU BIN1 (11741810_x_at) / Fold change /veh BIN1 (11741810_x_at) / RFU WNT11 (11732464_a_at) / Fold change /veh WNT11 (11732464_a_at) / RFU C10orf10 (11716521_a_at) / Fold change /veh C10orf10 (11716521_a_at) / RFU C5orf56 (11738089_at) / Fold change /veh C5orf56 (11738089_at) / RFU CYB561 (11721691_x_at) / Fold change /veh CYB561 (11721691_x_at) / RFU ANKRD19P (11752326_a_at) / Fold change /veh ANKRD19P (11752326_a_at) / RFU OR2T12 /// OR2T33 /// OR2T8 (11738714_s_at) / Fold change /veh OR2T12 /// OR2T33 /// OR2T8 (11738714_s_at) / RFU VCAN (11748164_a_at) / Fold change /veh VCAN (11748164_a_at) / RFU JSRP1 (11732532_at) / Fold change /veh JSRP1 (11732532_at) / RFU KRTAP10-11 (11738290_x_at) / Fold change /veh KRTAP10-11 (11738290_x_at) / RFU MYO3A (11730013_a_at) / Fold change /veh MYO3A (11730013_a_at) / RFU EBF3 (11725865_a_at) / Fold change /veh EBF3 (11725865_a_at) / RFU CAMK2N1 (11719241_x_at) / Fold change /veh CAMK2N1 (11719241_x_at) / RFU C5orf56 (11738088_a_at) / Fold change /veh C5orf56 (11738088_a_at) / RFU OLFML3 (11715873_a_at) / Fold change /veh OLFML3 (11715873_a_at) / RFU LOC100653217 /// NTM (11731650_a_at) / Fold change /veh LOC100653217 /// NTM (11731650_a_at) / RFU MAPK11 (11762145_a_at) / Fold change /veh MAPK11 (11762145_a_at) / RFU FIZ1 (11724087_x_at) / Fold change /veh FIZ1 (11724087_x_at) / RFU OASL (11726364_x_at) / Fold change /veh OASL (11726364_x_at) / RFU SOX15 (11748057_x_at) / Fold change /veh SOX15 (11748057_x_at) / RFU CD79A (11719716_a_at) / Fold change /veh CD79A (11719716_a_at) / RFU HIST1H1D (11736915_at) / Fold change /veh HIST1H1D (11736915_at) / RFU CASKIN2 (11723855_a_at) / Fold change /veh CASKIN2 (11723855_a_at) / RFU LOC730098 (11760151_x_at) / Fold change /veh LOC730098 (11760151_x_at) / RFU OR4N2 (11742367_at) / Fold change /veh OR4N2 (11742367_at) / RFU PRRT2 (11749266_a_at) / Fold change /veh PRRT2 (11749266_a_at) / RFU SNX32 (11753110_a_at) / Fold change /veh SNX32 (11753110_a_at) / RFU CDHR5 (11726645_a_at) / Fold change /veh CDHR5 (11726645_a_at) / RFU RCAN1 (11760418_a_at) / Fold change /veh RCAN1 (11760418_a_at) / RFU FAM167A (11723789_a_at) / Fold change /veh FAM167A (11723789_a_at) / RFU FAM26E (11764081_at) / Fold change /veh FAM26E (11764081_at) / RFU ISYNA1 (11749810_s_at) / Fold change /veh ISYNA1 (11749810_s_at) / RFU ACY1 (11761880_at) / Fold change /veh ACY1 (11761880_at) / RFU 11764098_at / Fold change /veh 11764098_at / RFU SAMD14 (11745864_x_at) / Fold change /veh SAMD14 (11745864_x_at) / RFU NPB (11741838_a_at) / Fold change /veh NPB (11741838_a_at) / RFU TMPRSS6 (11731388_a_at) / Fold change /veh TMPRSS6 (11731388_a_at) / RFU KRTAP10-2 (11738614_at) / Fold change /veh KRTAP10-2 (11738614_at) / RFU ARHGAP8 /// PRR5-ARHGAP8 (11727945_x_at) / Fold change /veh ARHGAP8 /// PRR5-ARHGAP8 (11727945_x_at) / RFU KRTAP5-7 /// NADSYN1 (11734609_at) / Fold change /veh KRTAP5-7 /// NADSYN1 (11734609_at) / RFU RASL12 (11751679_a_at) / Fold change /veh RASL12 (11751679_a_at) / RFU CDKN2B (11736163_a_at) / Fold change /veh CDKN2B (11736163_a_at) / RFU PRF1 (11729649_at) / Fold change /veh PRF1 (11729649_at) / RFU, ZNF638 /// ZNF638-IT1 / Fold change vs veh, ZNF638 /// ZNF638-IT1 / RFU, PANK3 / Fold change vs veh, PANK3 / RFU, SH3YL1 / Fold change vs veh, SH3YL1 / RFU, ZEB2 / Fold change vs veh, ZEB2 / RFU, NRIP1 / Fold change vs veh, NRIP1 / RFU, PTTG1IP / Fold change vs veh, PTTG1IP / RFU, CAPN2 / Fold change vs veh, CAPN2 / RFU, MED14 / Fold change vs veh, MED14 / RFU, SNORA58 / Fold change vs veh, SNORA58 / RFU, C1orf63 / Fold change vs veh, C1orf63 / RFU, LRRFIP1 / Fold change vs veh, LRRFIP1 / RFU, NDUFAF7 / Fold change vs veh, NDUFAF7 / RFU, SLC12A2 / Fold change vs veh, SLC12A2 / RFU, IBTK / Fold change vs veh, IBTK / RFU, ESF1 / Fold change vs veh, ESF1 / Fold change vs veh, TMEM50B / RFU, TAOK1 / Fold change vs veh, TAOK1 / RFU, ACBD3 / Fold change vs veh, ACBD3 / RFU, TMA16 / Fold change vs veh, TMA16 / RFU, RWDD3 / Fold change vs veh, RWDD3 / RFU, BCAT1 / Fold change vs veh, BCAT1 / RFU, EDEM3 / Fold change vs veh, EDEM3 / RFU, TMEM33 / Fold change vs veh, TMEM33 / RFU, WDR75 / Fold change vs veh, WDR75 / RFU, AHCTF1 / Fold change vs veh, AHCTF1 / RFU, TFRC / Fold change vs veh, TFRC / RFU, ZDHHC17 / Fold change vs veh, ZDHHC17 / RFU, NOM1 / Fold change vs veh, NOM1 / RFU, ARL8B / Fold change vs veh, ARL8B / RFU, ZBTB11 / Fold change vs veh, ZBTB11 / RFU, TAMM41 / Fold change vs veh, TAMM41 / RFU, KIAA1704 /// LOC100996395 / Fold change vs veh, KIAA1704 /// LOC100996395 / RFU, ING1 / Fold change vs veh, ING1 / RFU, TRMT61B / Fold change vs veh, TRMT61B / RFU, FUBP3 / Fold change vs veh, FUBP3 / RFU, TP53 / Fold change vs veh, TP53 / RFU, TNKS2 / Fold change vs veh, TNKS2 / RFU, ZFP14 / Fold change vs veh, ZFP14 / RFU, ACTR2 / Fold change vs veh, ACTR2 / RFU, PPP3R1 / Fold change vs veh, PPP3R1 / RFU, PIK3R1 / Fold change vs veh, PIK3R1 / RFU, HNRNPA1 / Fold change vs veh, HNRNPA1 / RFU, RNF170 / Fold change vs veh, RNF170 / RFU, ZNF28 / Fold change vs veh, ZNF28 / RFU, RNGTT / Fold change vs veh, RNGTT / RFU, OGT / Fold change vs veh, OGT / RFU, BRD1 / Fold change vs veh, BRD1 / RFU, MARS / Fold change vs veh, MARS / RFU, ZNF655 / Fold change vs veh, ZNF655 / RFU, FAHD1 / Fold change vs veh, FAHD1 / RFU, BDP1 / Fold change vs veh, BDP1 / RFU, LRRCC1 / Fold change vs veh, LRRCC1 / RFU, ARID1A / Fold change vs veh, ARID1A / RFU, ZNF146 / Fold change vs veh, ZNF146 / RFU, ZNF330 / Fold change vs veh, ZNF330 / RFU, GPN3 / Fold change vs veh, GPN3 / RFU, C9orf123 / Fold change vs veh, C9orf123 / RFU, N4BP2L2 / Fold change vs veh, N4BP2L2 / RFU, ARFIP1 / Fold change vs veh, ARFIP1 / RFU, FAM179B / Fold change vs veh, FAM179B / RFU, BCL10 / Fold change vs veh, BCL10 / RFU, UHRF1BP1L / Fold change vs veh, UHRF1BP1L / RFU, BET1 / Fold change vs veh, BET1 / RFU, CNOT2 / Fold change vs veh, CNOT2 / RFU, ZNF268 / Fold change vs veh, ZNF268 / Fold change vs veh, ZNF507 / RFU, DGCR2 / Fold change vs veh, DGCR2 / RFU, WDSUB1 / Fold change vs veh, WDSUB1 / Fold change vs veh, HSP90B1 /// MIR3652 / RFU, ADSS / Fold change vs veh, ADSS / RFU, GK / Fold change vs veh, GK / RFU, ZNF148 / Fold change vs veh, ZNF148 / RFU, TAF9 / Fold change vs veh, TAF9 / RFU, SLC1A5 / Fold change vs veh, SLC1A5 / RFU, SLMO2 / Fold change vs veh, SLMO2 / RFU, ABCC4 / Fold change vs veh, ABCC4 / RFU, LOC101060439 /// RAP1B / Fold change vs veh, LOC101060439 /// RAP1B / RFU, RFX7 / Fold change vs veh, RFX7 / RFU, GTPBP10 / Fold change vs veh, GTPBP10 / RFU, CNEP1R1 / Fold change vs veh, CNEP1R1 / RFU, BIVM-ERCC5 /// ERCC5 / Fold change vs veh, BIVM-ERCC5 /// ERCC5 / RFU, ILF3 / Fold change vs veh, ILF3 / RFU 11762660_at / Fold change /veh 11762660_at / RFU VCAN (11757783_s_at) / Fold change /veh VCAN (11757783_s_at) / RFU DDX43 (11728927_at) / Fold change /veh DDX43 (11728927_at) / RFU KRT8 (11758188_x_at) / Fold change /veh KRT8 (11758188_x_at) / RFU NKD1 (11759106_at) / Fold change /veh NKD1 (11759106_at) / RFU SRD5A1 (11742802_a_at) / Fold change /veh SRD5A1 (11742802_a_at) / RFU TPSAB1 /// TPSB2 (11721975_s_at) / Fold change /veh TPSAB1 /// TPSB2 (11721975_s_at) / RFU GSTM3 (11746129_a_at) / Fold change /veh GSTM3 (11746129_a_at) / RFU IL23R (11737362_x_at) / Fold change /veh IL23R (11737362_x_at) / RFU TMEM51 (11727254_a_at) / Fold change /veh TMEM51 (11727254_a_at) / RFU PIWIL2 (11732686_x_at) / Fold change /veh PIWIL2 (11732686_x_at) / RFU ORM1 (11744905_x_at) / Fold change /veh ORM1 (11744905_x_at) / RFU CCDC152 (11743942_at) / Fold change /veh CCDC152 (11743942_at) / RFU ECM1 (11717891_a_at) / Fold change /veh ECM1 (11717891_a_at) / RFU IL23R (11748794_a_at) / Fold change /veh IL23R (11748794_a_at) / RFU TNFAIP8L3 (11732012_x_at) / Fold change /veh TNFAIP8L3 (11732012_x_at) / RFU MBOAT4 (11741988_at) / Fold change /veh MBOAT4 (11741988_at) / RFU 11764193_at / Fold change /veh 11764193_at / RFU TMEM53 (11763286_at) / Fold change /veh TMEM53 (11763286_at) / RFU MAGEB2 (11727129_at) / Fold change /veh MAGEB2 (11727129_at) / RFU TMEM200A (11744735_a_at) / Fold change /veh TMEM200A (11744735_a_at) / RFU CCDC152 (11751479_a_at) / Fold change /veh CCDC152 (11751479_a_at) / RFU FAM211A (11726209_a_at) / Fold change /veh FAM211A (11726209_a_at) / RFU RGS16 (11746705_a_at) / Fold change /veh RGS16 (11746705_a_at) / RFU VCAN (11755009_s_at) / Fold change /veh VCAN (11755009_s_at) / RFU RHOB (11743442_s_at) / Fold change /veh RHOB (11743442_s_at) / RFU RGS16 (11720943_a_at) / Fold change /veh RGS16 (11720943_a_at) / RFU RGS16 (11720944_at) / Fold change /veh RGS16 (11720944_at) / RFU, VPS4B / Fold change vs veh, VPS4B / RFU, CREB1 / Fold change vs veh, CREB1 / RFU, DNAJC13 / Fold change vs veh, DNAJC13 / RFU, GNAQ / Fold change vs veh, GNAQ / RFU, CDK5R1 / Fold change vs veh, CDK5R1 / RFU, ZRANB3 / Fold change vs veh, ZRANB3 / RFU, CUL4A / Fold change vs veh, CUL4A / RFU, CCNY / Fold change vs veh, CCNY / RFU, UFL1 / Fold change vs veh, UFL1 / RFU, COG3 / Fold change vs veh, COG3 / RFU, DIAPH2 / Fold change vs veh, DIAPH2 / RFU, SKA2 / Fold change vs veh, SKA2 / RFU, AFF3 / Fold change vs veh, AFF3 / RFU, LMF1 / Fold change vs veh, LMF1 / RFU, IPO11 / Fold change vs veh, IPO11 / RFU, DFFB / Fold change vs veh, DFFB / RFU, FOXP1 / Fold change vs veh, FOXP1 / RFU, CARD8 / Fold change vs veh, CARD8 / RFU, STRN3 / Fold change vs veh, STRN3 / RFU, ADK / Fold change vs veh, ADK / RFU, RASSF2 / Fold change vs veh, RASSF2 / RFU, WIPF1 / Fold change vs veh, WIPF1 / RFU, LARP1B / Fold change vs veh, LARP1B / RFU, RASA1 / Fold change vs veh, RASA1 / RFU, RB1 / Fold change vs veh, RB1 / RFU, PPFIA1 / Fold change vs veh, PPFIA1 / RFU, MAT2A / Fold change vs veh, MAT2A / RFU, CCT5 / Fold change vs veh, CCT5 / RFU, WDR92 / Fold change vs veh, WDR92 / RFU, CUX1 / Fold change vs veh, CUX1 / RFU, TTC7A / Fold change vs veh, TTC7A / RFU, TMEM135 / Fold change vs veh, TMEM135 / RFU, DEPTOR / Fold change vs veh, DEPTOR / RFU, CPM / Fold change vs veh, CPM / RFU, DNAJB6 / Fold change vs veh, DNAJB6 / RFU, CACNA2D3 / Fold change vs veh, CACNA2D3 / RFU, DTX4 / Fold change vs veh, DTX4 / RFU, TFCP2 / Fold change vs veh, TFCP2 / RFU, GMCL1 /// GMCL1P1 / Fold change vs veh, GMCL1 /// GMCL1P1 / RFU, AEBP2 / Fold change vs veh, AEBP2 / RFU, SNHG1 /// SNORD22 /// SNORD25 /// SNORD26 /// SNORD27 /// SNORD28 /// SNORD29 /// SNORD31 / Fold change vs veh, SNHG1 /// SNORD22 /// SNORD25 /// SNORD26 /// SNORD27 /// SNORD28 /// SNORD29 /// SNORD31 / Fold change (Aza/veh), C12orf56 (ProbeSet 11735607_a_at) / Fold change (ACY-1035/veh), C12orf56 (ProbeSet 11735607_a_at) / Fold change (Aza/veh), FGFR1OP (ProbeSet 11751329_s_at) / Fold change (ACY-1035/veh), FGFR1OP (ProbeSet 11751329_s_at) / Fold change (Aza/veh), VPS36 (ProbeSet 11739960_a_at) / Fold change (ACY-1035/veh), VPS36 (ProbeSet 11739960_a_at) / RFU SYPL1 (11715823_x_at) / Fold change /veh SYPL1 (11715823_x_at) / RFU IGFBP7 (11715501_s_at) / Fold change /veh IGFBP7 (11715501_s_at) / RFU REEP3 (11722064_at) / Fold change /veh REEP3 (11722064_at) / RFU IGLL1 (11728026_x_at) / Fold change /veh IGLL1 (11728026_x_at): dose or concentration left out as unconfirmed
Details: ProbeSet 11716844_s_at; LIST D

Nc1ccc(-c2cccs2)cc1NC(=O)c1ccc2c(c1)cc(C1CC1)n2CCN1CCOCC1 [ACY-1035]
RFU, DNAJC13: 129.69 RFU
